Experimental findings from patent US6878742B2, “Heterocyclic sulfonamide inhibitors of beta amyloid production” (Wyeth, priority 2000, dated 2005) are described below.

Values joined by “and” are separate entries in the source; they are usually repeats but may differ in a detail not shown here. Identical values can stand only once.

For the assay, the system named is amyloid precursor protein (APP) proteolysis. Nature of the assay: Repressor Release Assay (RRA). Type of assay: cell-based. The following applies: luciferase activity over diluent control. Here is the method:
The beta amyloid inhibitory activity of many of the compounds of the present invention has been determined using the Repressor Release Assay (RRA). See, Table 23 below. A compound is considered active in RRA if it leads to at least a 1.5 fold increase in luciferase activity at 20 μM and is non-toxic.
The compounds generated as described in Examples 1 through 220 were tested in the RRA in accordance with published techniques [Shuey, D. J., Sheiffele, P., Jones, D., Cockett, M. I., and Quinet, E. M. (1999), “Repressor release: a useful tool for monitoring amyloid precursor protein (APP) proteolysis in mammalian cells”, Society for Neuroscience Abstracts, Vol. 25, 29th Annual Meeting of Society for Neuroscience, Miami Beach, Fla., Oct. 23-28, 1999]. Briefly, this assay is performed as follows.
CHO-K1 cells are cultured in whole DMEM media (DMEM—High Glucose with 10% fetal bovine serum, 1% Non-essential Amino Acids, and 1% Penicillin-Streptomycin) at 37° C. with 5% CO2. Two million cells are plated into 10-cm dishes 24 hrs prior to transfection.
Transient transfections are completed as recommended by Gibco BRL using their Lipofectamine Plus system. First, 6 μg of pRSVO-luc and 6 μg of APP-lacI construct DNA are added to 460 μL Opti-Mem transfection media and incubated with 30 μL Plus reagent for 15 minutes. Then, a lipid mixture of 40 μL Lipofectamine reagent and 460 μL Opti-Mem transfection media is incubated with the DNA-Plus reagent mixture for 15 minutes. During the DNA-lipid incubation, the CHO-K1 cells are washed once and covered in 5.0 mL DMEM media without Penicillin-Streptomycin. The DNA-lipid preparation is then layered onto these cells and incubated at 37° C. overnight.
One and one half million transfected cells per well (100 μL total volume) are plated into sterile, opaque Packard 96-well Cultur-Plates in clear DMEM whole media (DMEM—without phenol red) and incubated at 37° C. with 5% CO2 for 3-5 hours.
Compounds are diluted using two different protocols; one protocol is used for compounds supplied neat (weighed powder in vial) and the other protocol is used for compounds supplied in solution (20 mM in DMSO in 96-well plates). For both protocols, 25 mM Hepes and 25 mM Hepes/1% DMSO are prepared fresh to be used as diluent. The Hepes/DMSO is used as the diluent control on all experimental plates.
The following table depicts the steps for compound dilution (please note that the last step is the addition of compound to cells/media in tissue culture plate):
Because some compounds arrive in 96-well format at 20 mM, the following represents the protocol for their dilution (note that an average molecular weight of these compounds was used to calculate these dilutions and as above, the last step is the addition of compound to cells/media in tissue culture plate):
Once compounds are diluted, they are applied in duplicate on cells in tissue culture plates (prepared above). Cells are incubated with compound at 37° C. with 5% CO2 for an additional 36-48 hours.
Luciferase assays (LucLite reagent, Packard) are performed and are read on a Packard TopCount instrument. Media is removed from each 96-well plate and replaced with 100 μL PBS per well (with Mg^2+ and Ca^2+). An equal volume (100 μL) of the LucLite lysis/substrate buffer is added to each well and the plates are sealed and mixed in the dark on a rotary shaker for 15-30 minutes at room temperature. Luciferase readings are then taken on the TopCount instrument. Measurements are expressed as relative light units (RLU) and are calculated and analyzed in MS Excel as follows.
A compound is considered active in RRA if it leads to at least a 1.5 fold increase in luciferase activity at 20 μM and is non-toxic, as determined by loss of signal (≦0.75 fold increase). Fold increase is the amount of luciferase activity (measured in relative light units) over diluent control. SEM represents the standard error of the mean for fold increase (not shown).

[1] abbreviates: Conc 10 μg/mL, read-out: APPI Fold Increase.
[2] abbreviates: Conc 20 μg/mL, read-out: APPI Fold Increase.

Consider `C=CCCC(O)[C@@H](NS(=O)(=O)c1cccs1)[C@@H](C)CC` (stereo partly drawn) [Example 151, N-{(S)-2-hydroxy-1-[(S)-1-methylpropyl]hex-5-enyl}thiophene-2-sulfonamide], for which the fold induction at 10 µg/mL under setting [1] worked out at 1.94.
In the case of `CCCCC[C@H](CC)[C@@H](CO)NS(=O)(=O)c1ccc(Br)s1` [Example 62, 5-bromo-N-[(1S,2S)-2-ethyl-1-(hydroxymethyl)heptyl]thiophene-2-sulfonamide], under setting [2], the fold induction at 20 µg/mL was determined as 4.5.
Regarding `CC[C@H](C)[C@@H](CO)NS(=O)(=O)c1cc(Cl)sc1Cl` [Example 5], the “APPI Fold Increase” value is, setting by setting: (Conc 0.3 μg/mL) 0.9 fold; (Conc 1 μg/mL) 0.9 fold; (Conc 3 μg/mL) 1.1 fold; (Conc 10 μg/mL) 1.1 fold.
For the compound `Cc1cccc(CSC[C@@H](CO)NS(=O)(=O)c2ccc(Br)s2)c1` [Example 115, 5-bromo-N-(R-2-hydroxy-1-{[(3-methylbenzyl)thio]methyl}ethyl)thiophene-2-sulfonamide], the fold induction at 20 µg/mL under setting [2] worked out at 4.4.
Turning to “5-chloro-N-{(S,S)-1-[(S)-1-hydroxyethyl]-2-methylbutyl}thiophene-2-sulfonamide [Example 184]”, the “APPI Fold Increase” value (Conc 20 μg/mL) was 3.7 fold and 2.7 fold.
Regarding `CC(C)C[C@@H](c1ccccc1)[C@@H](CO)NS(=O)(=O)c1ccc(Br)s1` [Example 68, 5-bromo-N-[(1S,2S)-1-(hydroxymethyl)-4-methyl-2-phenylpentyl]thiophene-2-sulfonamide], the fold induction at 20 µg/mL under setting [2] is 2.3.
On to `CC[C@H](C)[C@H](NS(=O)(=O)c1ccc(Cl)s1)C(O)c1ccc(OC)cc1` (stereo partly drawn) [Example 134, 5-chloro-N-{(S,S)-1-[hydroxy(4-methoxyphenyl)methyl]-2-methylbutyl}thiophene-2-sulfonamide], for which the fold induction at 10 µg/mL under setting [1] was determined as 2.42.
With `CCCCC[C@H](CC(C)C)[C@@H](CO)NS(=O)(=O)c1ccc(Cl)s1` [Example 42, 5-chloro-N-[(1S,2R)-1-(hydroxymethyl)-2-isobutylheptyl]thiophene-2-sulfonamide], under setting [2], the fold induction at 20 µg/mL came to 3.4.
As for `CC(C)(C)[C@@H](CO)NS(=O)(=O)c1ccc(Br)s1` [Example 113], the “APPI Fold Increase” value (Conc 10 μg/mL) is 2.86 fold.
For the compound `O=S(=O)(N[C@H](CO)Cc1ccccc1)c1ccc(Cl)s1` [Example 96, N-[(S)-1-benzyl-2-hydroxyethyl]-5-chlorothiophene-2-sulfonamide], the fold induction at 20 µg/mL under setting [2] was 1.5.
As to `O=S(=O)(NC1(CO)CCc2ccccc21)c1ccc(Cl)s1` (stereo not shown) [Example 179], the “APPI Fold Increase” value (Conc 20 μg/mL) amounted to 8.3 fold.
On to `O=S(=O)(NC(CO)C1CCCCC1)c1ccc(Br)s1` (stereo not shown) [Example 13], for which the “APPI Fold Increase” value was found to be 2.17 fold (Conc 1 μg/mL), 4.02 fold (Conc 3 μg/mL) and 3.94 fold (Conc 10 μg/mL).
On to `CCC[C@H](O)[C@@H](NS(=O)(=O)c1ccc(Br)s1)[C@@H](C)CC` [Example 192, 5-bromo-N-{(S,S)-2-hydroxy-1-[(S)-1-methylpropyl]pentyl}thiophene-2-sulfonamide], for which the “APPI Fold Increase” value (Conc 20 μg/mL) was 2.2 fold and 1.9 fold and 1.7 fold.
With `CC[C@H](C)[C@H](NS(=O)(=O)c1ccc(Cl)s1)C(O)c1ccc(N(C)C)cc1` (stereo partly drawn) [Example 139, 5-chloro-N-{(S,S)-1-[[4-(dimethylamino)phenyl](hydroxy)methyl]-2-methylbutyl}thiophene-2-sulfonamide], under setting [1], the fold induction at 10 µg/mL turned out to be 3.97.
In the case of `CCCCCC[C@H](CC)[C@@H](CO)NS(=O)(=O)c1ccc(Cl)s1` [Example 77B, 5-chloro-N-[(1S,2S)-2-ethyl-1-(hydroxymethyl)octyl]thiophene-2-sulfonamide], under setting [2], the fold induction at 20 µg/mL came out at 16.9.
Same read-out and setting: next, `CC[C@@H](CO)NS(=O)(=O)c1ccc(Cl)s1` [Example 100, 5-chloro-N-[(S)-1-(hydroxymethyl)propyl]thiophene-2-sulfonamide]: 1.5; `CCC(CC)[C@@H](CO)NS(=O)(=O)c1cccs1` [Example 226, N-[(S)-2-Ethyl-1-(hydroxymethyl)butyl]thiophene-2-sulfonamide]: 7.6.
In the case of `CC[C@H](C)[C@@H](CO)NS(=O)(=O)C1=CC=C(Br)S1(=O)=O` [Example 18, 5-Bromo-N-[(1S,2S)-1-(hydroxymethyl)-2-methylbutyl]thiophene-2-sulfonamide 1,1-dioxide], the fold induction at 3 µg/mL (Conc 3 μg/mL, read-out: APPI Fold Increase) turned out to be 2.19. Also, the fold induction at 10 µg/mL under setting [1] stood at 5.23. The fold induction at 20 µg/mL under setting [2] came to 5.7.
As for `CC[C@H](C)[C@H](NS(=O)(=O)c1ccc(Cl)s1)C(O)C=C(C)C` (stereo partly drawn) [Example 132, 5-chloro-N-{(S)-2-hydroxy-4-methyl-1-[(S)-1-methylpropyl]pent-3-enyl}thiophene-2-sulfonamide], under setting [1], the fold induction at 10 µg/mL was 1.68.
As to `CCCCCC[C@@H](CCCCC)[C@@H](CO)NS(=O)(=O)c1ccc(Cl)s1` [Example 44, 5-chloro-N-[(1S,2R)-1-(hydroxymethyl)-2-pentyloctyl]thiophene-2-sulfonamide], the fold induction at 20 µg/mL under setting [2] stood at 1.6.
For the compound `C=CC(O)[C@@H](NS(=O)(=O)c1ccc(Cl)s1)[C@@H](C)CC` (stereo partly drawn) [Example 127, 5-chloro-N-{(S)-2-hydroxy-1-[(S)-1-methylpropyl]but-3-enyl}thiophene-2-sulfonamide], the fold induction at 10 µg/mL under setting [1] amounted to 4.27.
`CC[C@H](C)[C@@H](CO)N(CCOc1ccccc1)S(=O)(=O)c1ccc(Cl)s1` [Example 87, 5-Chloro-N-[(1S,2S)-1-(hydroxymethyl)-2-methylbutyl]-N-(2-phenoxyethyl)thiophene-2-sulfonamide]: under setting [2], the fold induction at 20 µg/mL came to 3.1.
For `C=CCCC(O)(CCC=C)[C@@H](NS(=O)(=O)c1ccc(Br)s1)[C@@H](C)CC` [Example 176, 5-bromo-N-{(S)-2-but-3-enyl-2-hydroxy-1-[(S)-1-methylpropyl]hex-5-enyl}thiophene-2-sulfonamide], under setting [1], the fold induction at 10 µg/mL came to 1.52.
Turning to `CC[C@H](C)[C@@H](CO)NS(=O)(=O)c1cccs1` [Example 210, N-[(1S,2S)-1-(Hydroxymethyl)-2-methylbutyl]thiophene-2-sulfonamide], the “APPI Fold Increase” value (Conc 20 μg/mL) came out at 7.7 fold.
`CC[C@H](C)[C@@H](CO)NS(=O)(=O)c1ccc(Cl)s1` [Example 4]: the “APPI Fold Increase” value by setting is: (Conc 1 μg/mL) 2.22 fold; (Conc 3 μg/mL) 2.98 fold and 3.52 fold; (Conc 10 μg/mL) 3.3 fold and 5.03 fold; (Conc 20 μg/mL) 4 fold and 5.4 fold and 3.3 fold and 5.1 fold.
For the compound `O=S(=O)(NC1(CO)CC2CCC1C2)c1ccc(Br)s1` (stereo not shown) [Example 182, 5-bromo-N-[2-(hydroxymethyl)bicyclo[2.2.1]hept-2-yl]thiophene-2-sulfonamide], the fold induction at 20 µg/mL under setting [2] came to 4.2.
Turning to `O=S(=O)(NC1(CO)Cc2ccccc2C1)c1ccc(Cl)s1` [Example 180], the “APPI Fold Increase” value (Conc 20 μg/mL) stood at 2.3 fold.
For `O=S(=O)(NC1(CO)CCCC1)c1ccc(Cl)s1` [Example 94], under “Conc 10 μg/mL”, the “APPI Fold Increase” value turned out to be 2.4 fold.
Take `CCCC(CO)NS(=O)(=O)c1ccc(Cl)s1` (racemic) [Example 97, 5-chloro-N-[1-(hydroxymethyl)butyl]thiophene-2-sulfonamide]: the fold induction at 20 µg/mL under setting [2] was 1.8.
`CC[C@H](C)[C@@H](CO)NS(=O)(=O)c1ccco1` [Example 206, N-[(1S,2S)-1-(hydroxymethyl)-2-methylbutyl]-2-furansulfonamide]: the fold induction at 20 µg/mL under setting [2] is 1.8.
